# ± gives the expanded uncertainty stated by the source.
# Tests used:
# [1] = Liquid; for mass density: 293.15 K, 101.33 kPa; for vapor or sublimation pressure: Ebulliometric method (Recirculating still)
# [2] = refractive index (Na D-line) (dimensionless); conditions: 293.15 K; 101.33 kPa; Liquid; Standard Abbe refractometry
Structure (SMILES),mass density [1] [kg/m3],vapor or sublimation pressure ([1]; 383.1 K) [kPa],vapor or sublimation pressure ([1]; 404.24 K) [kPa],vapor or sublimation pressure ([1]; 417.99 K) [kPa],vapor or sublimation pressure ([1]; 426.54 K) [kPa],refractive index [2],vapor or sublimation pressure ([1]; 379.88 K) [kPa],vapor or sublimation pressure ([1]; 401.28 K) [kPa],vapor or sublimation pressure ([1]; 415.26 K) [kPa],vapor or sublimation pressure ([1]; 423.97 K) [kPa],vapor or sublimation pressure ([1]; 375.63 K) [kPa],vapor or sublimation pressure ([1]; 392.7 K) [kPa],vapor or sublimation pressure ([1]; 403.8 K) [kPa],vapor or sublimation pressure ([1]; 410.86 K) [kPa]
COc1ccccc1 [anisole],994.1 ± 1.2,26.66 ± 0.25,53.33 ± 0.3,79.99 ± 0.43,101.32 ± 0.5,1.5171 ± 0.0007,,,,,,,,
CCCCCCCCC [nonane],717.6 ± 0.7,,,,,1.4055 ± 0.0007,26.66 ± 0.25,53.33 ± 0.3,79.99 ± 0.42,101.32 ± 0.49,,,,
CCCCCO [pentan-1-ol],814.5 ± 1,,,,,1.4098 ± 0.0007,,,,,26.66 ± 0.31,53.33 ± 0.37,79.99 ± 0.53,101.32 ± 0.61
